Among the data in PubChem BioAssay (NCI) are TGI values, retold here.

The structures appear in SMILES notation.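 These data come from cells grown in 96-well plates and exposed to compound for 48 hours at five concentrations. TGI marks complete inhibition of growth.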

Test in all cases: NCI tumour cell line growth inhibition, 48 h
In experiment [1] the test system is LXFL 529 NSCLC.
Experiment [2] concerns KM20L2 colon.
Experiment [3] relates to XF 498 CNS.
Experiment [4] concerns DMS 114 small cell lung.
The test system of experiment [5] is M19-MEL melanoma.
For experiment [6], the system named is HOP-18 NSCLC.
For experiment [7], the system named is DLD-1 colon.
For experiment [8], the system named is SNB-78 CNS.
The subject of experiment [9] is RXF-631 renal.

`CN1CCC(CN2c3ccccc3Sc3ccccc32)CC1`: the TGI in [1] worked out at 27.5 µM; in [2], 25.8 µM; in experiment [3], 23.9 µM; in experiment [4], 29.8 µM; in [5] it was 26.4 µM; in experiment [6], 27.5 µM. Besides, the values for the TGI in experiment [7] and in [8] were 28.3 µM and 30 µM, respectively.
In the case of `C=C(Br)N(CC)CC`, the TGI in [1], in experiment [2], in [4], in experiment [5], in experiment [9] and in experiment [6] was greater than 100 µM in each case. For the same compound, the TGI in experiment [7] and in experiment [8] was greater than 100 µM throughout.
Regarding `COc1ccc(/C=c2\sc3n(c2=O)C(N)=C(C#N)C(c2ccc(OC)cc2)C=3c2nc3ccccc3[nH]2)cc1` (centres undefined), the TGI in experiment [2] was greater than 100 µM; in experiment [4], 72.9 µM; in experiment [5], 63.8 µM.
With `CCC1CN2CCc3c([nH]c4ccccc34)C2C[C@@H]1CC(=O)N(C)C` (some centres undefined), the TGI in [1], in experiment [2], in [3], in [4], in [5] and in [6] was greater than 100 µM in each case. The TGI in [7] and in experiment [8] was greater than 100 µM each time.
Turning to `Cc1ccc(S(=O)(=O)OCC23CCC(CC2)C2CC23)cc1` (centres undefined), the TGI in [1], in [2], in [4], in experiment [5], in [9] and in experiment [6] was greater than 100 µM in each case. Besides, the TGI in experiment [7] is greater than 100 µM.
